According to article PMC8296573, “Synthesis and Biological Evaluation of Fingolimod Derivatives as Antibacterial Agents” (ACS Omega, 2021):
≈ marks a conversion by molar mass, not a printed value. Where two headings read alike, the source gives them in different places.

Legend:
A. baumannii NCTC 13423 = assay: Antibacterial activity, pre-exposure; format: cell-based, Acinetobacter baumannii; conditions: for Average inhibition %, biofilms viability / Average inhibition %, planktonic cells viability / inhibition at 10 µM / inhibition at 15 µM / inhibition at 25 µM / inhibition at 50 µM: A. baumannii NCTC 13423, pre-exposure, ± SD; for inhibition at 10 µM / inhibition at 15 µM / inhibition at 25 µM / inhibition at 50 µM / MIC: Acinetobacter baumannii, NCTC13423
Outline: (§1)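 Compounds are diluted in DMSO and plated, then bacteria are added to test prevention of growth and biofilm formation. After 18 h at 37 °C with shaking, planktonic OD and resazurin fluorescence are measured. Washed biofilms receive resazurin (30 min S. aureus, 60 min A. baumannii, 90 min P. aeruginosa, 37 °C), then crystal violet.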

P. aeruginosa ATCC 9027 = assay: Antibacterial activity, pre-exposure; format: cell-based, Pseudomonas aeruginosa; conditions: for Average inhibition %, biofilms viability / Average inhibition %, planktonic cells viability / inhibition at 50 µM / inhibition at 100 µM / inhibition at 150 µM / inhibition at 200 µM: P. aeruginosa ATCC 9027, pre-exposure, ± SD; for MIC / inhibition at 50 µM / inhibition at 100 µM / inhibition at 150 µM / inhibition at 200 µM: Pseudomonas aeruginosa; for inhibition at 50 µM / inhibition at 100 µM / inhibition at 150 µM / inhibition at 200 µM: ATCC9027
Outline: as §1

S. aureus ATCC 25923 [1] = assay: Antibacterial activity, pre-exposure (planktonic cells and biofilm formation); format: cell-based, Staphylococcus aureus; conditions: for MIC / inhibition at 5 µM / inhibition at 10 µM / inhibition at 15 µM / inhibition at 25 µM: Staphylococcus aureus, ATCC25923; for inhibition at 5 µM / inhibition at 10 µM / inhibition at 15 µM / inhibition at 25 µM / Average inhibition %, biofilms viability / Average inhibition %, planktonic cells viability: pre-exposure, ± SD
Outline: as §1

S. aureus ATCC 25923 [2] = assay: Antibacterial activity, post-exposure on preformed 18-h-old biofilms; format: cell-based, Staphylococcus aureus; conditions: ± SD; for inhibition at 25 µM / inhibition at 50 µM / inhibition at 100 µM / inhibition at 200 µM: Staphylococcus aureus; for inhibition at 25 µM: ATCC25923, 25 µM; for inhibition at 50 µM: ATCC25923, 50 µM; for inhibition at 100 µM: ATCC25923, 100 µM; for inhibition at 200 µM: ATCC25923, 200 µM
Outline: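 Compounds were applied to preformed 18-h biofilms after medium change and left 24 h. Read-outs: planktonic OD plus resazurin fluorescence (20 μM), biofilm metabolic activity by resazurin 30 min at 37 °C, then biomass by crystal violet absorbance at 595 nm after ethanol fixation.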

[3] = 10 µM, read-out: Average inhibition %, biofilms biomass
[4] = 10 µM, read-out: Average inhibition %, planktonic cells turbidity
[5] = 15 µM, read-out: Average inhibition %, biofilms biomass
[6] = 15 µM, read-out: Average inhibition %, planktonic cells turbidity
[7] = 25 µM, read-out: Average inhibition %, biofilms biomass
[8] = 25 µM, read-out: Average inhibition %, planktonic cells turbidity
[9] = 50 µM, read-out: Average inhibition %, biofilms biomass
[10] = 50 µM, read-out: Average inhibition %, planktonic cells turbidity
[11] = read-out: Average inhibition %, biofilms biomass
[12] = read-out: Average inhibition %, planktonic cells turbidity

CCCCCCCCc1cccc(CCC(N)(CO)CO)c1 [Compound 43, 2-Amino-2-(3-octylphenethyl)propane-1,3-diol]
Average inhibition %, biofilms viability (A. baumannii NCTC 13423; 10 µM): 0.2 ± 0.4%
Average inhibition %, planktonic cells viability (A. baumannii NCTC 13423; 10 µM): 5.5 ± 0.6%
Average inhibition %, biofilms viability (A. baumannii NCTC 13423; 15 µM): 99.2 ± 1.1%
Average inhibition %, planktonic cells viability (A. baumannii NCTC 13423; 15 µM): 99.8 ± 0.1%
Average inhibition %, biofilms viability (A. baumannii NCTC 13423; 25 µM): 100 ± 1.1%
Average inhibition %, planktonic cells viability (A. baumannii NCTC 13423; 25 µM): 99.8 ± 0.2%
Average inhibition %, biofilms viability (A. baumannii NCTC 13423; 50 µM): 98.7 ± 2.5%
Average inhibition %, planktonic cells viability (A. baumannii NCTC 13423; 50 µM): 99.8 ± 0.1%
inhibition at 10 µM (A. baumannii NCTC 13423; [3]): 0.6 ± 1%
inhibition at 10 µM (A. baumannii NCTC 13423; [4]): 0%
inhibition at 15 µM (A. baumannii NCTC 13423; [5]): 76.9 ± 3.5%
inhibition at 15 µM (A. baumannii NCTC 13423; [6]): 99.1 ± 1.1%
inhibition at 25 µM (A. baumannii NCTC 13423; [7]): 81.7 ± 1%
inhibition at 25 µM (A. baumannii NCTC 13423; [8]): 99.1 ± 1%
inhibition at 50 µM (A. baumannii NCTC 13423; [9]): 79 ± 3.8%
inhibition at 50 µM (A. baumannii NCTC 13423; [10]): 98.3 ± 0.9%
MIC (A. baumannii NCTC 13423; pre-exposure, Inactive = no activity up to 50 μM, > = some inhibition but no MIC reached, read-out: MIC A. baumannii NCTC 13423): 15 µM (≈ 4.61 µg/mL)
MIC (A. baumannii NCTC 13423; supplementary molecular formula strings sheet, read-out: MIC (A. baumannii)): 15 µM (≈ 4.61 µg/mL)
Average inhibition %, biofilms viability (P. aeruginosa ATCC 9027; 50 µM): 53.1 ± 41.1%
Average inhibition %, planktonic cells viability (P. aeruginosa ATCC 9027; 50 µM): 98.1 ± 0.5%
Average inhibition %, biofilms viability (P. aeruginosa ATCC 9027; 100 µM): 99.2 ± 2%
Average inhibition %, planktonic cells viability (P. aeruginosa ATCC 9027; 100 µM): 99 ± 1.3%
Average inhibition %, biofilms viability (P. aeruginosa ATCC 9027; 150 µM): 99.9 ± 0.9%
Average inhibition %, planktonic cells viability (P. aeruginosa ATCC 9027; 150 µM): 99.4 ± 0.7%
Average inhibition %, biofilms viability (P. aeruginosa ATCC 9027; 200 µM): 100.3 ± 0.5%
Average inhibition %, planktonic cells viability (P. aeruginosa ATCC 9027; 200 µM): 99.9 ± 0.1%
MIC (P. aeruginosa ATCC 9027; ATCC9027, pre-exposure, Inactive = no activity up to 200 μM, > = some inhibition but no MIC reached, read-out: MIC P. aeruginosa ATCC 9027): 50 to 100 µM (≈ 15.4 to 30.7 µg/mL)
MIC (P. aeruginosa ATCC 9027; ATCC9027, supplementary molecular formula strings sheet, read-out: MIC (P. aeruginosa)): 50 to 100 µM (≈ 15.4 to 30.7 µg/mL)
inhibition at 50 µM (P. aeruginosa ATCC 9027; [9]): 52.1 ± 19.8%
inhibition at 50 µM (P. aeruginosa ATCC 9027; [10]): 94.5 ± 0.8%
inhibition at 100 µM (P. aeruginosa ATCC 9027; 100 µM, read-out: Average inhibition %, biofilms biomass): 82.4 ± 25.2%
inhibition at 100 µM (P. aeruginosa ATCC 9027; 100 µM, read-out: Average inhibition %, planktonic cells turbidity): 97.2 ± 2.5%
inhibition at 150 µM (P. aeruginosa ATCC 9027; 150 µM, read-out: Average inhibition %, biofilms biomass): 89.4 ± 13.3%
inhibition at 150 µM (P. aeruginosa ATCC 9027; 150 µM, read-out: Average inhibition %, planktonic cells turbidity): 96.9 ± 1.2%
inhibition at 200 µM (P. aeruginosa ATCC 9027; 200 µM, read-out: Average inhibition %, biofilms biomass): 94.3 ± 1.4%
inhibition at 200 µM (P. aeruginosa ATCC 9027; 200 µM, read-out: Average inhibition %, planktonic cells turbidity): 97.5 ± 0.3%
MIC (S. aureus ATCC 25923 [1]; lowest concentration with no visible growth (>90% inhibition of turbidity and viability of planktonic cells), 18 h, read-out: MIC S. aureus ATCC 25923): 15 to 25 µM (≈ 4.61 to 7.69 µg/mL)
inhibition at 5 µM (S. aureus ATCC 25923 [1]; 5 µM, read-out: Average inhibition %, biofilms biomass): 33.6 ± 16%
inhibition at 5 µM (S. aureus ATCC 25923 [1]; 5 µM, read-out: Average inhibition %, planktonic cells turbidity): 25.6 ± 36.8%
inhibition at 10 µM (S. aureus ATCC 25923 [1]; [3]): 29.2 ± 14.5%
inhibition at 10 µM (S. aureus ATCC 25923 [1]; [4]): 36.2 ± 26.1%
inhibition at 15 µM (S. aureus ATCC 25923 [1]; [5]): 66.4 ± 27.2%
inhibition at 15 µM (S. aureus ATCC 25923 [1]; [6]): 61.4 ± 37.8%
inhibition at 25 µM (S. aureus ATCC 25923 [1]; [7]): 92.2 ± 6.9%
inhibition at 25 µM (S. aureus ATCC 25923 [1]; [8]): 98.9 ± 0.6%
MIC (S. aureus ATCC 25923 [1]; read-out: MIC (S. aureus)): 15 to 25 µM (≈ 4.61 to 7.69 µg/mL)
Average inhibition %, biofilms viability (S. aureus ATCC 25923 [1]; 5 µM): 17.4 ± 8.1%
Average inhibition %, planktonic cells viability (S. aureus ATCC 25923 [1]; 5 µM): 12.3 ± 21.4%
Average inhibition %, biofilms viability (S. aureus ATCC 25923 [1]; 10 µM): 29.1 ± 5.4%
Average inhibition %, planktonic cells viability (S. aureus ATCC 25923 [1]; 10 µM): 14.8 ± 15.3%
Average inhibition %, biofilms viability (S. aureus ATCC 25923 [1]; 15 µM): 52.5 ± 43.2%
Average inhibition %, planktonic cells viability (S. aureus ATCC 25923 [1]; 15 µM): 36.1 ± 55.2%
Average inhibition %, biofilms viability (S. aureus ATCC 25923 [1]; 25 µM): 99.7 ± 0%
Average inhibition %, planktonic cells viability (S. aureus ATCC 25923 [1]; 25 µM): 99.9 ± 0.2%
Average inhibition %, biofilms viability (S. aureus ATCC 25923 [2]; 25 µM): 14.4 ± 14%
Average inhibition %, planktonic cells viability (S. aureus ATCC 25923 [2]; 25 µM): 0 ± 0%
Average inhibition %, biofilms viability (S. aureus ATCC 25923 [2]; 50 µM): 23.1 ± 5.1%
Average inhibition %, planktonic cells viability (S. aureus ATCC 25923 [2]; 50 µM): 12.8 ± 18.3%
Average inhibition %, biofilms viability (S. aureus ATCC 25923 [2]; 100 µM): 35.4 ± 15.6%
Average inhibition %, planktonic cells viability (S. aureus ATCC 25923 [2]; 100 µM): 61.4 ± 27.6%
Average inhibition %, biofilms viability (S. aureus ATCC 25923 [2]; 200 µM): 75.7 ± 18.5%
Average inhibition %, planktonic cells viability (S. aureus ATCC 25923 [2]; 200 µM): 98 ± 3.3%
inhibition at 25 µM (S. aureus ATCC 25923 [2]; [11]): 38.4 ± 9.2%
inhibition at 25 µM (S. aureus ATCC 25923 [2]; [12]): 6.1 ± 8%
inhibition at 50 µM (S. aureus ATCC 25923 [2]; [11]): 50.1 ± 4.6%
inhibition at 50 µM (S. aureus ATCC 25923 [2]; [12]): 33.5 ± 18.7%
inhibition at 100 µM (S. aureus ATCC 25923 [2]; [11]): 64.7 ± 9.1%
inhibition at 100 µM (S. aureus ATCC 25923 [2]; [12]): 48.9 ± 21.5%
inhibition at 200 µM (S. aureus ATCC 25923 [2]; [11]): 79.9 ± 12%
inhibition at 200 µM (S. aureus ATCC 25923 [2]; [12]): 79.1 ± 6.3%
